Where “and” joins values, the source holds several entries; their conditions need not be identical. Equal values may be shown once.
System: human embryonic stem cell line H9
Test: Cytokine array analysis of cell lysates and conditioned media
Type: cell-based
Design: key to BMP-4 expression / BMP-6 expression / EGF expression / FGF-6 expression / Fractalkine expression / GCP-2 expression / IL-3 expression / IL-4 expression / IL-6 expression / M-CSF expression / MIG expression / Amphiregulin expression: cytokine array signal, normalized and background-subtracted
Protocol: The effect that Wnt-3a treatment has on cytokine expression was analyzed using a protein array. Cells of the human embryonic stem cell line H9 were cultured according to the methods described in Example 15. At passage 54, cells were differentiated in the presence of 100 ng/ml ActivinA+/−10 ng/ml Wnt3a for 2 days in 0.5% FBS DMEM/F12. Cells were subsequently cultured for an additional three days in 100 ng/mlActivin A and 2% FBS DMEM/F12. At the end of the 5th day, CXCR4 expression was determined by FACS for each treatment group.
Cell lysates were prepared from cells of each treatment group, with a mammalian cell lysis kit (Sigma-Aldrich, MO). Conditioned media from each treatment group was collected and concentrated. Cytokine array analysis was completed using Cytokine Array panels provided by RayBiotech, GA (http://www.raybiotech.com/). Table VII lists cytokine, growth factor, and receptor expression following normalization of the data and background subtraction. For each panel, positive and negative controls are also included. Th data shown are two independent samples per cell treatment group (1,2).

## Wnt-3a
Cell conditioned media
  1L-1beta expression: 316.59 and 278.30
  1L-1ra expression: 354.23 and 581.75
  Acrp30 expression: 2,795.71 and 2,302.99
  AgRP expression: 651.26 and 482.21
  Amphiregulin expression: 619.07 and 782.60
  Angiogenin expression: 57,442.48 and 54,969.04
  Angiopoietin-2 expression: 65,959.24 and 71,664.21
  AxI expression: 610.40 and 748.34
  BDNF expression: 770.08 and 715.86
  BLC expression: 337.12 and 249.80
  BMP-6 expression: 985.70 and 670.60
  CK beta 8-1 expression: 42.78 and 75.44
  CNTF expression: 787.19 and 541.51
  EGF expression: 23,331.57 and 22,768.53
  Eotaxin-2 expression: 2,156.21 and 1,445.14
  Eotaxin-3 expression: 2,140.81 and 1,480.35
  FGF-6 expression: 3,283.94 and 2,519.78
  Flt-3 Ligand expression: 511.67 and 792.98
  Fractalkine expression: 359.37 and 367.15
  GCP-2 expression: 451.78 and 362.12
  GDNF expression: 443.22 and 509.66
  GM-CSF expression: 1,808.82 and 1,446.82
  I-309 expression: 318.30 and 288.36
  IFN-gamma expression: 1,238.97 and 1,435.08
  IGF-I expression: 254.98 and 187.77
  IGFBP-1 expression: 227.60 and 155.91
  IGFBP-2 expression: 42,215.53 and 43,934.33
  IGFBP-4 expression: 18,988.34 and 13,380.14
  IL-1alpha expression: 3,999.26 and 3,545.79
  IL-2 expression: 758.10 and 881.84
  IL-3 expression: 11,345.78 and 12,174.73
  IL-4 expression: 804.30 and 673.95
  IL-5 expression: 2,120.27 and 1,713.38
  IL-6 expression: 9,774.82 and 9,991.93
  IL-10 expression: 1,625.71 and 1,129.96
  IL-13 expression: 2,522.42 and 1,807.27
  IL-15 expression: 2,495.04 and 1,981.62
  IL-16 expression: 436.38 and 405.71
  LIGHT expression: 1,346.78 and 1,108.17
  Leptin expression: 7,238.71 and 4,886.99
  M-CSF expression: 740.98 and 684.01
  MCP-1 expression: 2,015.89 and 1,567.53
  MCP-2 expression: 694.78 and 694.07
  MCP-3 expression: 701.62 and 583.42
  MCP-4 expression: 231.02 and 276.62
  MIP-1-delta expression: 474.02 and 291.71
  MIP-3-alpha expression: 208.78 and 184.41
  NAP-2 expression: 371.35 and 343.68
  NT-3 expression: 571.57 and 427.51
  PARC expression: 474.02 and 363.80
  PDGF-BB expression: 2,635.37 and 2,005.09
  RANTES expression: 682.80 and 855.01
  SCF expression: 1,394.69 and 2,155.98
  SDF-1 expression: 326.85 and 616.95
  TGF-beta 1 expression: 1,827.65 and 1,849.18
  TGF-beta 3 expression: 294.34 and 343.68
  TNF-alpha expression: 2,609.70 and 2,167.71
  TNF-beta expression: 1,701.01 and 1,637.94
  bFGF expression: 1,226.99 and 1,241.09
Cell lysate
  1L-1beta expression: 352.05 and 312.08
  1L-1ra expression: 302.68 and 198.48
  Acrp30 expression: 601.61 and 690.66
  AgRP expression: 77.82 and 89.00
  Angiogenin expression: 619.40 and 750.85
  AxI expression: 88.59 and 139.03
  BDNF expression: 763.51 and 951.45
  BLC expression: 742.24 and 476.36
  BMP-4 expression: 348.44 and 304.48
  BMP-6 expression: 571.23 and 641.05
  CK beta 8-1 expression: 22.48 and 21.54
  CNTF expression: 1,382.51 and 1,060.82
  EGF expression: 742.24 and 984.39
  Eotaxin expression: 301.87 and 253.80
  Eotaxin-3 expression: 934.12 and 847.56
  Flt-3 Ligand expression: 857.45 and 795.19
  Fractalkine expression: 792.02 and 456.51
  GCP-2 expression: 593.71 and 538.86
  GDNF expression: 436.75 and 444.68
  GM-CSF expression: 1,343.17 and 1,161.75
  I-309 expression: 708.52 and 743.25
  IFN-gamma expression: 1,202.67 and 1,037.60
  IGFBP-1 expression: 59.41 and 85.73
  IGFBP-2 expression: 2,671.90 and 2,414.72
  IGFBP-4 expression: 4,459.85 and 4,173.19
  IL-1alpha expression: 1,612.93 and 1,421.89
  IL-3 expression: 2,119.94 and 1,497.48
  IL-4 expression: 625.42 and 638.94
  IL-5 expression: 1,245.23 and 1,167.24
  IL-10 expression: 1,222.75 and 1,096.30
  IL-13 expression: 1,486.89 and 1,407.96
  IL-15 expression: 1,677.16 and 1,601.79
  IL-16 expression: 651.11 and 668.50
  Leptin expression: 1,234.39 and 1,091.65
  M-CSF expression: 852.63 and 867.83
  MCP-1 expression: 1,022.03 and 1,076.03
  MCP-3 expression: 1,184.61 and 1,255.50
  MCP-4 expression: 1,380.51 and 1,606.86
  MDC expression: 269.36 and 280.41
  MIG expression: 1,113.16 and 1,137.26
  MIP-1-delta expression: 491.75 and 322.22
  MIP-3-alpha expression: 1,602.09 and 1,399.93
  NT-3 expression: 316.73 and 275.76
  PARC expression: 352.85 and 353.04
  PDGF-BB expression: 517.84 and 597.56
  RANTES expression: 724.98 and 637.25
  SCF expression: 1,152.50 and 1,021.13
  TARC expression: 372.93 and 343.33
  TGF-beta 1 expression: 1,426.67 and 1,240.30
  TNF-alpha expression: 2,851.74 and 1,285.91
  TNF-beta expression: 1,049.33 and 1,026.62
  bFGF expression: 11,722.95 and 21,398.52
Wnt3a treated vs Activin A only
  IGFBP-1, TGFbeta-1 and TGFbeta-3 in cell lysates: upregulated
Wnt3 treated vs Activin A only
  Angiogenin, IGFBP-1 and EGF in cell conditioned media: Noticeable upregulation
